Source: patent publication US20260215887A1, “COATING COMPOSITION FOR THE TREATMENT OR PREVENTION OF PERIIMPLANTITIS AND PREPARATION METHOD THEREOF” (UNIVERSITAT JAUME I, priority 2023, published 2026)

How the values were obtained:
[1] = system: Streptococcus Gordonii (CECT 804); experiment: Proliferation and bacterial count on inoculated grade-IV titanium disks; assay type: cell-based
Description: The mechanism of action of the composition of Example 1 was further investigated by studying in parallel assays the proliferation of bacterial population of Streptococcus Gordonii on grade-IV titanium plates which are either uncoated or coated with M1 (free of octenidine) or M3 (2% in weight of octenidine) or with a solution of octenidine having an equivalent amount of octenidine as the composition M3. The following experimental procedure was used.
All materials used were sterile or have been previously sterilized by autoclaving. The assays were performed inside a level 2 biosafety cabinet. Three different grade IV-Ti disks were used to perform the assay. This procedure was carried out for each of the assays: First, a suspension of Streptococcus Gordonii (CECT 804) of known concentration was prepared. For this purpose, a test tube is prepared with 10 mL of d.d. H2O to which bacteria were added until the desired concentration (Concentration=1×10^6 CFU/mL). […] 500 μL of bacterial suspension of known concentration (1×10^6 CFU/mL) was then added in wells of a sterile 24-well plate. Subsequently, the grade-IV Ti disc was immersed in the bacterial suspension for 1 minute (1 disk per well) in order to inoculate the disc. […]
Once this time was elapsed, bacteria population was counted. […]

[2] = system: Staphylococcus aureus; conditions: known in the art; cited from earlier work

CCCCCCCCN=c1ccn(CCCCCCCCCCn2ccc(=NCCCCCCCC)cc2)cc1 [octenidine]
proliferation of bacteria population on coated disks ([1]; after 24 hours incubation at 37° C., FIG. 22): significant reduction of bacteria proliferation
bacterial count of bacteria adhered to the titanium surface ([1]; average of three samples per disk, 24 h at 37° C., uncoated disk 1,726 × 10^7): 483,33 CFU/mL
minimal bactericide concentration (MBC) [2]: < 2 µg/mL
minimal inhibitory concentration (MIC) [2]: < 2 µg/mL
